One assay has as its target T1, human MTAP (Homo sapiens, UniProt Q13126).
T1 construct: made in house
T1 sequence (Q13126 1-283): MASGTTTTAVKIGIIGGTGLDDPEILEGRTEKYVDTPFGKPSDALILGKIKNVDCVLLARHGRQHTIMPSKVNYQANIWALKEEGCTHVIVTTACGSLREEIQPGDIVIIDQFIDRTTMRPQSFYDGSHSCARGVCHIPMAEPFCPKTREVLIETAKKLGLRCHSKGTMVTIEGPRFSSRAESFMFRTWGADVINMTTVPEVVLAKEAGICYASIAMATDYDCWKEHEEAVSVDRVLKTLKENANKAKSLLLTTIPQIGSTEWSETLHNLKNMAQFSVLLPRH
The assay can be described thus: Inhibition of human MTAP, continuous spectrophotometric assay. The class given is biochemical. The text has this:
Continuous spectrophotometric assays are used to characterize the compounds of the invention and […] inhibition of MTAP.

The next assay deals with T2, E. coli MTAN (Escherichia coli, UniProt P0AF12).
T2 construct: made in house
T2 sequence (P0AF12 whole entry): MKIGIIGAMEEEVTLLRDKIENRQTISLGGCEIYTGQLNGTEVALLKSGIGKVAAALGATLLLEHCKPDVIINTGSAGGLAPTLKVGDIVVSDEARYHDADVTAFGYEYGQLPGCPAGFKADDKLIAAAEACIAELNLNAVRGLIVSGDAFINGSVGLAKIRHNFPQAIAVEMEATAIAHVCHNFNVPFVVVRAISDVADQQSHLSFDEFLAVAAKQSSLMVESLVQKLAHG
The assay can be described thus: biochemical. The class given is biochemical. How it is done: After removal of cell debris by centrifugation, the soluble cell lysates are loaded onto nickel-charged chelating Sepharose (GE Healthcare) and washed with lysis buffer containing 20-150 mM imidazole. The 6His-MTANs are eluted in 250 mM imidazole, desalted using a Sephadex G-15 (GE Healthcare) gel filtration column, equilibrated with low salt buffer (100 mM HEPES, 30 mM KCL, pH 7.6) and concentrated to 40 mg/mL.
Briefly, all experiments are carried out at 25° C., in 1 mL total reaction volume containing 100 mM HEPES buffer, pH 7.5 and 50 mM KCl with 5′-deoxymethylthioadenosine (MTA) as substrate. […] For measuring dissociation constant (Kd) of inhibitors, a xanthine oxidase-coupled assay is carried out. […] Control experiments are carried out in the absence of either inhibitor or MTAN.
[formula] where vs^t and vs are steady state rates in the presence, and absence of inhibitor, respectively; Km is substrate Michaelis constant which is obtained as described above; [S] and [I] are the concentrations of the substrate MTA and inhibitor, respectively. If the concentration of inhibitor is smaller than 10-fold concentration of enzymes, the following correction is then applied: r=I′−(1−v0′/v0)Et
All data fitting is carried out with KaleidaGraph™ ver. 3.5 (Synergy Software).

Setting [1] is: read-out: Inhibition (Ki) Human MTAP.
[2] abbreviates: 25° C., pH 7.5, MTA as substrate, read-out: Inhibition (Ki) E. coli MTAN.

Read-outs that look alike come from different tables or passages of the source.

Usually Ki stands for the dissociation constant of the complex between target and ligand, obtained from inhibition or displacement. Turning to `Nc1ncnc2c(CN3C[C@@H](O)[C@H](C4CCCC4)C3)c[nH]c12` (racemic) [Example 13, (±)-trans-4-Cyclopentyl-1-[(9-deaza-adenin-9-yl)methyl]-3-hydroxypyrrolidine], the affinity at human MTAP corresponds to a Ki of 2.4 ± 0.4 nM.
At human MTAP, `Nc1ncnc2c(CN3C[C@@H](CC4CCCCC4)[C@H](O)C3)c[nH]c12` (racemic) [Example 2, (±)-trans-4-(Cyclohexylmethyl)-1-[(9-deaza-adenin-9-yl)methyl]-3-hydroxy-pyrrolidine] came in with a Ki of more than 5000 nM.
For `CCC(CC)[C@@H]1CN(Cc2c[nH]c3c(N)ncnc23)C[C@H]1O` (racemic) [Example 10, (±)-trans-1-[(9-Deaza-adenin-9-yl)methyl]-3-hydroxy-4-(pent-3-yl)pyrrolidine], the results for the Ki on E. coli MTAN and on human MTAP were 0.7 ± 0.1 nM and more than 5000 nM, respectively.
In turn, `Nc1ncnc2c(CN3C[C@@H](O)[C@H](C4CC4)C3)c[nH]c12` (racemic) [Example 4, (±)-trans-4-Cyclopropyl-1-[(9-deaza-adenin-9-yl)methyl]-3-hydroxypyrrolidine] returned an inhibition constant Ki at human MTAP of 5.8 ± 0.7 nM.
As to `CCCC[C@H]1CN(Cc2c[nH]c3c(N)ncnc23)C[C@@H]1O` [Example 17, (3R,4S)-4-Butyl-1-[(9-deaza-adenin-9-yl)methyl]-3-hydroxypyrrolidine], on human MTAP (setting [1]), the Ki was 0.55 ± 0.07 nM.
Consider `Nc1ncnc2c(CN3C[C@@H](CCCSCc4ccccc4)[C@H](O)C3)c[nH]c12` (racemic) [Example 16, (±)-trans-4-[3-(Benzylthio)propyl]-1-[(9-deaza-adenin-9-yl)methyl]-3-hydroxypyrrolidine], for which the “Selectivity for bacterial MTAN” value at E. coli MTAN is reported as “some selectivity for bacterial MTAN”. On human MTAP, affinity was put at a Ki of 71 ± 5 nM.
For the molecule `Nc1ncnc2c(CN3C[C@@H](O)[C@H](c4cn(Cc5ccccc5)nn4)C3)c[nH]c12` (racemic) [Example 14, (±)-trans-4-(1-Benzyl-1H-1,2,3-triazol-4-yl)-1[(9-deaza-adenin-9-yl)methyl]-3-hydroxypyrrolidine], the “Inhibition of Human MTAP” value on human MTAP (at 2.5 μM) is “^a (indicates no inhibition observed at 2.5 μM)”.
Take `CC[C@H]1CN(Cc2c[nH]c3c(N)ncnc23)C[C@H]1O` (racemic) [Example 18, (±)-cis-1-[(9-Deaza-adenin-9-yl)methyl]-4-ethyl-3-hydroxypyrrolidine]: the Ki is 1.8 ± 0.3 nM on E. coli MTAN (setting [2]) and 34 ± 3 nM at human MTAP.
In the case of `CC[C@@H]1CN(Cc2c[nH]c3c(N)ncnc23)C[C@H]1O` (racemic) [Example 11, (±)-trans-1-[(9-Deaza-adenin-9-yl)methyl]-4-ethyl-3-hydroxypyrrolidine], the Ki on E. coli MTAN is 0.31 ± 0.02 nM; on human MTAP, 8.6 ± 1 nM.
With `CC(C)C[C@@H]1CN(Cc2c[nH]c3c(N)ncnc23)C[C@H]1O` (racemic) [Example 9, (±)-trans-1-[(9-Deaza-adenin-9-yl)methyl]-3-hydroxy-4-isobutylpyrrolidine], on human MTAP, the affinity corresponds to a Ki of 6 ± 0.4 nM.
With `CCCC[C@@H]1CN(Cc2c[nH]c3c(N)ncnc23)C[C@H]1O` (racemic) [Example 8, (±)-trans-1-[(9-Deaza-adenin-9-yl)methyl]-4-butyl-3-hydroxypyrrolidine], the Ki was 0.051 ± 0.003 nM on E. coli MTAN (setting [2]) and more than 5000 nM at human MTAP.
The molecule `CC[C@H]1CN(Cc2c[nH]c3c(N)ncnc23)C[C@@H]1O` [Example 12] displayed a Ki at human MTAP of more than 5000 nM.
`C=CC[C@@H]1CN(Cc2c[nH]c3c(N)ncnc23)C[C@H]1O` (racemic) [Example 6, (±)-trans-4-Allyl-1-[(9-deaza-adenin-9-yl)methyl]-3-hydroxypyrrolidine] yielded an inhibition constant Ki on human MTAP of 14.3 ± 1.7 nM.
As to `C=C[C@@H]1CN(Cc2c[nH]c3c(N)ncnc23)C[C@H]1O` (racemic) [Example 5, (±)-trans-1-[(9-Deaza-adenin-9-yl)methyl]-3-hydroxy-4-vinylpyrrolidine], the Ki at human MTAP was 8.7 ± 1 nM.
As for `Nc1ncnc2c(CN3C[C@@H](O)[C@H](c4c[nH]nn4)C3)c[nH]c12` (racemic) [Example 15, (±)-trans-1-[(9-Deaza-adenin-9-yl)methyl]-3-hydroxy-4-(1H-1,2,3-triazol-4-yl)pyrrolidine], the Ki was 2 ± 0.2 nM at E. coli MTAN (setting [2]) and 59 ± 8 nM on human MTAP (setting [1]).
The molecule `Nc1ncnc2c(CN3C[C@@H](O)[C@H](c4ccccc4)C3)c[nH]c12` (racemic) [Example 1, (±)-trans-1-[(9-Deaza-adenin-9-yl)methyl]-3-hydroxy-4-phenylpyrrolidine] showed a Ki on human MTAP of 4.3 ± 0.6 nM.
With `C#C[C@@H]1CN(Cc2c[nH]c3c(N)ncnc23)C[C@H]1O` (racemic) [Example 7, (±)-3,4-trans-1-[(9-Deaza-adenin-9-yl)methyl]-4-ethynyl-3-hydroxypyrrolidine], the Ki at E. coli MTAN (setting [2]) stood at 0.39 ± 0.02 nM; at human MTAP (setting [1]), 31 ± 3 nM.

For the origin of these results see US9957272B2, “3-hydroxypyrrolidine inhibitors of 5′-methylthioadenosine phosphorylase and nucleosidase” (priority 2009, dated 2018).
